In US6667322B2, “Antidepressant chroman and chromene derivatives of 3-(1,2,3,6-tetrahydro-4-pyridinyl)-1H-indole” (Wyeth, priority 2001, dated 2003):
Structures can show the parent of a compound that is named as a salt. Where two headings read alike, the source gives them in different places.

Experiments:
[1] = target: T1, serotonin transporter (Rattus norvegicus, UniProt P31652); assay: 3H-paroxetine displacement from rat frontal cortical membranes (serotonin transporter affinity); assay type: binding
T1 construct: displace ^3H-paroxetine from male rat frontal cortical membranes; from tissue; host or cells: male rat frontal cortex membranes

[2] = target: T2, human 5-HT1A receptors (Homo sapiens, UniProt P08908); assay: [3H] 8-OHDPAT displacement from 5-HT1A receptor in transfected CHO cells; assay type: binding
T2 construct: expressed in transfected cells; host or cells: CHO cells
T2 sequence (P08908 1-422): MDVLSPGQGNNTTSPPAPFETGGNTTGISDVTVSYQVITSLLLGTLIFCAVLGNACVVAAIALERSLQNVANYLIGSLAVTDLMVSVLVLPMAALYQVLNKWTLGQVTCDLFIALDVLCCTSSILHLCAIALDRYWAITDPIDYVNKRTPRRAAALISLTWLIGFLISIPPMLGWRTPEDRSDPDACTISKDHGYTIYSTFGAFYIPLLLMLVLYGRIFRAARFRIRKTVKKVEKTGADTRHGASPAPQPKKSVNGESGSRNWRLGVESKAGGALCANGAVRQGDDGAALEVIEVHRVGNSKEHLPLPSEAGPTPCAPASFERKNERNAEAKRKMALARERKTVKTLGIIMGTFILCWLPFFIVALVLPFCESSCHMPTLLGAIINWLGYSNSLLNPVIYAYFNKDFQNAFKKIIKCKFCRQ
Excerpt: High affinity for the serotonin 5-HT1A receptor was established by testing the claimed compound's ability to displace [^3H] 8-OHDPAT (dipropylamino-tetralin) from the 5-HT1A serotonin receptor following a modification of the procedure of Hall et al., J. Neurochem. 44, 1685 (1985) which utilizes CHO cells stably transfected with human 5-HT1A receptors.

[3] = target: T3, cloned human 5-HT1A receptors (Homo sapiens, UniProt P08908); assay: 35S-GTPγS binding assay, agonist activity at 5-HT1A receptors; assay type: biochemical; conditions: for EC50: 35S-GTPγS binding to membranes containing cloned human 5-HT1A receptors, read-out: 5-HT1A Function EC50; for Emax: read-out: 5-HT1A Function (Emax)
T3 construct: expressed in transfected cells
T3 sequence (P08908 1-422): T2 sequence (P08908 1-422)
Method: Agonist activity at 5-HT1A receptors was established by using a ^35S-GTPγbinding assay similar to that used by Lazareno and Birdsall (Br. J. Pharmacol. 109: 1120, 1993), in which the test compound's ability to affect the binding of ^35S-GTPγS to membranes containing cloned human 5-HT1A receptors was determined. Agonists produce an increase in binding whereas antagonists produce no increase but rather reverse the effects of the standard agonist 8-OHDPAT. The test compound's maximum stimulatory effect is represented as the Emax, while its potency is defined by the EC50.

[4] = displacement of [3H] 8-OHDPAT, CHO cells stably transfected with human 5-HT1A receptors, read-out: 5-HT1A Receptor Affinity KI
[5] = displacement of 3H-paroxetine, male rat frontal cortical membranes, read-out: 5-HT Transporter Affinity KI

T1 sequence (P31652 whole entry): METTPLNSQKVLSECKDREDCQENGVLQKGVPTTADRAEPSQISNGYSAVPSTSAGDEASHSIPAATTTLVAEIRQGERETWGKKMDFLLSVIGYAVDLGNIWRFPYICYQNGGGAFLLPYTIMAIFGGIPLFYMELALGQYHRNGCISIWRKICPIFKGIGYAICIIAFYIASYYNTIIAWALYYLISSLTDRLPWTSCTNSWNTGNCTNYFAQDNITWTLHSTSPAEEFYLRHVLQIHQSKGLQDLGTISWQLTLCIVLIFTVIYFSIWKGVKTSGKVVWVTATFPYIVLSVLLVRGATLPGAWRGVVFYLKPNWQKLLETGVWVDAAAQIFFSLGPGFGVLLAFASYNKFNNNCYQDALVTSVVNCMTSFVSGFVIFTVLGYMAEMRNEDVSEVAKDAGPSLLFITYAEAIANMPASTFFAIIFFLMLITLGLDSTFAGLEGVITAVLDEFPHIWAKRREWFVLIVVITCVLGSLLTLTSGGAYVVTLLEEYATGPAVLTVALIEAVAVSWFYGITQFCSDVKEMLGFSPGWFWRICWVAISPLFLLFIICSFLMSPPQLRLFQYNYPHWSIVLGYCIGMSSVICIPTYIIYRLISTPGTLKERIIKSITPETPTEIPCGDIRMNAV

Row | SMILES | Ki [1] | Ki [2] | EC50 [3] | Emax [3] | melting point | Ki [2, 4] | Ki [1, 5] | 5-HT1A Function (Emax) ([3]; maximum stimulatory effect, 35S-GTPγS binding, cloned human 5-HT1A receptors, value in parentheses)
1 | COc1cccc2c1OC(CN1CC=C(c3c[nH]c4ccc(F)cc34)CC1)CC2 (stereo not shown) [Example 4, 5-Fluoro-3-(1-{[8-methoxy-3,4-dihydro-2H-chromen-2-yl]methyl}-1,2,3,6-tetrahydro-4-pyridinyl)-1H-indole] | 9.5 nM | 34.4 nM | 283 nM | 92% | 177 to 180 °C (dec.) |  |  | 
2 | C1=C(c2c[nH]c3ccccc23)CCN(CC2CCc3ccccc3O2)C1 (stereo not shown) [Example 2, 3-[1-(3,4-Dihydro-2H-chromen-2-ylmethyl)-1,2,3,6-tetrahydro-4-pyridinyl]-1H-indole] | 1.18 nM |  |  | 50% | 171 to 173 °C | 281 nM |  | 
3 | COc1cccc2c1OC(CN1CC=C(c3c[nH]c4ccc(F)cc34)CC1)C=C2 (stereo not shown) [Example 8, 5-Fluoro-3-(1-{[8-methoxy-2H-chromen-2-yl]methyl}-1,2,3,6-tetrahydro-4-pyridinyl)-1H-indole] | 20 nM |  | 1710 nM | 60% | 189 to 191 °C (dec.) | 143 nM |  | 
4 | Fc1ccc2[nH]cc(C3=CCN(CC4CCc5ccccc5O4)CC3)c2c1 (stereo not shown) [Example 3, 3-[1-(3,4-Dihydro-2H-chromen-2-ylmethyl)-1,2,3,6-tetrahydro-4-pyridinyl]-5-fluoro-1H-indole] | 4.84 nM |  | 398 nM | 83% | 172 to 175 °C | 299 nM |  | 
5 | Fc1ccc2[nH]c(CC3CCN(CC4CCc5ccccc5O4)CC3)cc2c1 (stereo not shown) (as salt: oxalate) (hydrate or solvate) [Example 1, 2-{[1-(3,4-Dihydro-2H-chromen-2-ylmethyl)-4-piperidinyl]methyl}-5-fluoro-1H-indole] |  |  |  |  | 187 to 190 °C |  |  | 
6 | Fc1ccc2[nH]c(CC3CCN(CC4CCc5ccccc5O4)CC3)cc2c1 (stereo not shown) [Example 1, 2-{[1-(3,4-Dihydro-2H-chromen-2-ylmethyl)-4-piperidinyl]methyl}-5-fluoro-1H-indole] |  |  |  |  |  | 265 nM | 0.13 nM | 
7 | COc1cccc2c1OC(CN1CC=C(c3c[nH]c4cc(F)ccc34)CC1)CC2 (stereo not shown) [Example 7, 6-Fluoro-3-(1-{[8-methoxy-3,4-dihydro-2H-chromen-2-yl]methyl}-1,2,3,6-tetrahydro-4-pyridinyl)-1H-indole] | 8.5 nM | 45 nM | 854 nM | 64% | > 170 °C (dec.) |  |  | 
8 | Fc1ccc2c(C3=CCN(CC4CCc5ccccc5O4)CC3)c[nH]c2c1 (stereo not shown) [Example 6, 3-[1-(3,4-Dihydro-2H-chromen-2-ylmethyl)-1 2,3,6-tetrahydro-4-pyridinyl]-6-fluoro-1H-indole] | 0.34 nM |  | 2480 nM | 100% | 160 to 161 °C |  |  | 
9 | COc1cccc2c1OC(CN1CC=C(c3c[nH]c4ccccc34)CC1)CC2 (stereo not shown) [Example 5, (3-(1-{8-Methoxy-3,4-dihydro-2H-chromen-2-yl]methyl}-1,2,3,6-tetrahydro-4-pyridinyl)-1H-indole] |  |  | 189 nM |  |  | 39 nM | 10 nM | 79.0
10 | COc1cccc2c1OC(CN1CC=C(c3c[nH]c4ccccc34)CC1)C=C2 (stereo not shown) [Example 9, 3-(1-{[8-Methoxy-2H-chromen-2-yl]methyl}-1,2,3,6-tetrahydro-4-pyridinyl)-1H-indole] | 9.5 nM | 96.5 nM | 208 nM | 67% | 198 to 200 °C (dec.) |  |  | 
